For this assay, the target named is CHI3L1/galectin-3 (CHI3L1-His and galectin-3-GST) (Homo sapiens, UniProt P36222). Put plainly: AlphaLISA, inhibition of CHI3L1/galectin-3 interaction. Format: biochemical. The note with it: read-out: % inhibition at 100 μM. (In general: In Alpha technology, singlet oxygen from a donor bead excites a nearby acceptor bead.)
Sequence of CHI3L1/galectin-3 (CHI3L1-His and galectin-3-GST) (P36222 22-383): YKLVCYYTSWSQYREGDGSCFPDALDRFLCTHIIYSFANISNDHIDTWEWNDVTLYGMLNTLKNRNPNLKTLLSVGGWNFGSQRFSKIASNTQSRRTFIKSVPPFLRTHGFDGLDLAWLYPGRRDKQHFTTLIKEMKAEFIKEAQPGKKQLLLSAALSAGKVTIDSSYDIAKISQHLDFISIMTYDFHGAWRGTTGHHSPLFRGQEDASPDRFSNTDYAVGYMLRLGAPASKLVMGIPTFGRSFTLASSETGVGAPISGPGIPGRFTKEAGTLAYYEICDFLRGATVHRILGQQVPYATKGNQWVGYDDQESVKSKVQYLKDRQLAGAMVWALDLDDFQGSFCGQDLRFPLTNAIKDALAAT
Sequence of CHI3L1/galectin-3 (CHI3L1-His and galectin-3-GST) (P17931 2-250 partner): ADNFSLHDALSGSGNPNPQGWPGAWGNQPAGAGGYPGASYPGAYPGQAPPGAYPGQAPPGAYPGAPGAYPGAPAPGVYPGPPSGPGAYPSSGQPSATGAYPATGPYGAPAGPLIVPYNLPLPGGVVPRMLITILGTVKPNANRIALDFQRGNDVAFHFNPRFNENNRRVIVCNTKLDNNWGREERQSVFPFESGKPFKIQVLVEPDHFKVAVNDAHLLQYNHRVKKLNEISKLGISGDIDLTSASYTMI

The term inhibition denotes the drop in the measured response relative to a control, in per cent. Regarding `CC(C)c1cccc(-c2ccc3ncn(C)c(=O)c3c2)c1` [3C13], the inhibition at 100 µM worked out at 27.5 ± 3.1%.

The values are drawn from doi:10.1101/2025.08.13.670152v1 (biorxiv, 2025).
